Laboratory results reported in patent publication US11192867B2, “Microbiocidal oxadiazole derivatives” (SYNGENTA PARTICIPATIONS AG, priority 2016, dated 2021).

Experiments:
[1] = system: Phakopsora pachyrhizi; test: Fungicidal activity against Phakopsora pachyrhizi / soybean / leaf disc preventative (Asian soybean rust); format: in vivo; conditions: foliar, 200 ppm in the applied formulation, soybean leaf disks, vs untreated control, read-out: disease control
How it was run: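 Soybean leaf discs on water agar sprayed with compound diluted in water, then inoculated with spores on the lower surface one day later. Kept 24-36 h dark, 20 °C, 75% rh, then 12 h light/12 h dark. Percent disease control versus untreated scored 12-14 days after application.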

[2] = system: Puccinia recondita f. sp. Tritici; test: Fungicidal activity against Puccinia recondita f. sp. Tritici / wheat / leaf disc preventative (brown rust); format: in vivo; conditions: foliar, 200 ppm in the applied formulation, wheat leaf segments cv. Kanzler, inoculated 1 day after application, vs untreated control, read-out: disease control
How it was run: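 Wheat cv. Kanzler leaf segments on agar sprayed with diluted compound, inoculated with brown rust spores 1 day later. Kept at 19° C., 75% rh, 12 h light/dark; percent disease control versus untreated segments scored 7 to 9 days after application, compounds tested at 200 ppm.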

[3] = system: Glomerella lagenarium (Colletotrichum lagenarium); test: Fungicidal activity against Glomerella lagenarium (Colletotrichum lagenarium) liquid culture / cucumber / preventative (anthracnose); format: cell-based; conditions: Colletotrichum orbiculare, 72 h; 20 ppm in the applied formulation; liquid culture (PDB), growth inhibition measured photometrically 3 to 4 days after application; vs untreated control; read-out: disease control
How it was run: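 Cryostored conidia mixed into potato dextrose broth and added to DMSO compound solution in microtiter plates. Incubated at 24 °C. Growth inhibition read photometrically 3–4 days after application as percent activity versus untreated check.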

[4] = system: Puccinia recondita f. sp. Tritici; test: Fungicidal activity against Puccinia recondita f. sp. Tritici / wheat / leaf disc curative (brown rust); format: in vivo; conditions: foliar, 24 h, 200 ppm in the applied formulation, wheat leaf segments cv. Kanzler, applied 1 day after inoculation, vs untreated control, read-out: disease control
Description: Leaf disks or leaf segments of various plant species are cut from plants grown in a greenhouse. The cut leaf disks or segments are placed in multiwell plates (24-well format) onto water agar. The leaf disks are sprayed with a test solution before (preventative) or after (curative) inoculation. Compounds to be tested are prepared as DMSO solutions (max. 10 mg/ml) which are diluted to the appropriate concentration with 0.025% Tween20 just before spraying. The inoculated leaf disks or segments are incubated under defined conditions (temperature, relative humidity, light, etc.) according to the respective test system. A single evaluation of disease level is carried out 3 to 14 days after inoculation, depending on the pathosystem. Percent disease control relative to the untreated check leaf disks or segments is then calculated.
Wheat leaf segments cv. Kanzler are placed on agar in multiwell plates (24-well format). The leaf segments are then inoculated with a spore suspension of the fungus. Plates were stored in darkness at 19° C. and 75% relative humidity. The formulated test compound diluted in water was applied 1 day after inoculation. The leaf segments were incubated at 19° C. and 75% relative humidity under a light regime of 12 hours light/12 hours darkness in a climate cabinet and the activity of a compound was assessed as percent disease control compared to untreated when an appropriate level of disease damage appears in untreated check leaf segments (6 to 8 days after application).
The following compounds at 200 ppm in the applied formulation give at least 80% disease control in this test when compared to untreated control leaf disks under the same conditions, which show extensive disease development.

NCCON=CCNC(=O)c1ccc(-c2noc(C(F)(F)F)n2)cc1 [Compound 1.66, N-[2-(2-aminoethoxy-imino)ethyl]-4-[5-(trifluoromethyl)-1,2,4-oxadiazol-3-yl]benzamide]
≥ 80%: pest or weed control at 200 ppm [1] | pest or weed control at 200 ppm [2] | inhibition of growth at 20 ppm [3] | pest or weed control at 200 ppm [4]

CCON=CC(C)NC(=O)c1ccc(-c2noc(C(F)(F)F)n2)cc1 (stereo not shown) [Compound 1.43, N-(2-ethoxyimino-1-methyl-ethyl)-4-[5-(trifluoromethyl)-1,2,4-oxadiazol-3-yl]benzamide]
≥ 80%: pest or weed control at 200 ppm [1] | pest or weed control at 200 ppm [2] | inhibition of growth at 20 ppm [3] | pest or weed control at 200 ppm [4]

CC(CNC(=O)c1ccc(-c2noc(C(F)(F)F)n2)cc1)=NOC(C)C [Compound 1.138, N-(2-isopropoxyimino-propyl)-4-[5-(trifluoromethyl)-1,2,4-oxadiazol-3-yl]benzamide]
≥ 80%: pest or weed control at 200 ppm [1] | pest or weed control at 200 ppm [2] | inhibition of growth at 20 ppm [3] | pest or weed control at 200 ppm [4]

O=C(NCC=NOCC=CCl)c1ccc(-c2noc(C(F)(F)F)n2)cc1 [Compound 1.78, N-[2-(3-chloroallyloxyimino)ethyl]-4-[5-(trifluoromethyl)-1,2,4-oxadiazol-3-yl]benzamide]
≥ 80%: pest or weed control at 200 ppm [1] | pest or weed control at 200 ppm [2] | inhibition of growth at 20 ppm [3] | pest or weed control at 200 ppm [4]

CC(CNC(=O)c1ccc(-c2noc(C(F)(F)F)n2)cc1)=NOCC1CC1 [Compound 1.145, N-[2-(cyclopropyl-methoxyimino)propyl]-4-[5-(trifluoromethyl)-1,2,4-oxadiazol-3-yl]benzamide]
≥ 80%: pest or weed control at 200 ppm [1] | pest or weed control at 200 ppm [2] | inhibition of growth at 20 ppm [3] | pest or weed control at 200 ppm [4]

C=C(Cl)CON=CCNC(=O)c1ccc(-c2noc(C(F)(F)F)n2)cc1 [Compound 1.100, N-[2-(2-chloroallyloxy-imino)ethyl]-4-[5-(trifluoromethyl)-1,2,4-oxadiazol-3-yl]benzamide]
≥ 80%: pest or weed control at 200 ppm [1] | pest or weed control at 200 ppm [2] | inhibition of growth at 20 ppm [3] | pest or weed control at 200 ppm [4]

C[C@@H](ON=CCNC(=O)c1ccc(-c2noc(C(F)(F)F)n2)cc1)C(=O)O [Compound 1.74, (2R)-2-[2-[[4-[5-(trifluoromethyl)-1,2,4-oxadiazol-3-yl]benzoyl]amino]ethylideneamino] oxypropanoic acid]
≥ 80%: pest or weed control at 200 ppm [1] | pest or weed control at 200 ppm [2] | inhibition of growth at 20 ppm [3] | pest or weed control at 200 ppm [4]

CCCON=CCNC(=O)c1ccc(-c2noc(C(F)(F)F)n2)cc1 [Compound 1.72, N-(2-propoxyiminoethyl)-4-[5-(trifluoromethyl)-1,2,4-oxadiazol-3-yl]benzamide]
≥ 80%: pest or weed control at 200 ppm [1] | pest or weed control at 200 ppm [2] | inhibition of growth at 20 ppm [3] | pest or weed control at 200 ppm [4]

CO/N=C/CNC(=O)c1ccc(-c2noc(C(F)(F)F)n2)cc1F [Compound 1.4, 2-fluoro-N-[(2E)-2-methoxyimino-ethyl]-4-[5-(trifluoromethyl)-1,2,4-oxadiazol-3-yl]benzamide]
≥ 80%: pest or weed control at 200 ppm [1] | pest or weed control at 200 ppm [2] | inhibition of growth at 20 ppm [3] | pest or weed control at 200 ppm [4]

CCCON=C(C)CNC(=O)c1ccc(-c2noc(C(F)(F)F)n2)cc1 [Compound 1.116, N-(2-propoxyimino-propyl)-4-[5-(trifluoromethyl)-1,2,4-oxadiazol-3-yl]benzamide]
≥ 80%: pest or weed control at 200 ppm [1] | pest or weed control at 200 ppm [2] | inhibition of growth at 20 ppm [3] | pest or weed control at 200 ppm [4]

CC(C=NOCC=CCl)NC(=O)c1ccc(-c2noc(C(F)(F)F)n2)cc1 (stereo not shown) [Compound 1.33, N-[2-(3-chloroallyloxy-imino)-1-methyl-ethyl]-4-[5-(trifluoromethyl)-1,2,4-oxadiazol-3-yl]benzamide]
≥ 80%: pest or weed control at 200 ppm [1] | pest or weed control at 200 ppm [2] | inhibition of growth at 20 ppm [3] | pest or weed control at 200 ppm [4]

O=C(NCC=NOCCO)c1ccc(-c2noc(C(F)(F)F)n2)cc1 [Compound 1.60, N-[2-(2-hydroxyethoxy-imino)ethyl]-4-[5-(trifluoromethyl)-1,2,4-oxadiazol-3-yl]benzamide]
≥ 80%: pest or weed control at 200 ppm [1] | pest or weed control at 200 ppm [2] | inhibition of growth at 20 ppm [3] | pest or weed control at 200 ppm [4]

CC(ON=CCNC(=O)c1ccc(-c2noc(C(F)(F)F)n2)cc1)C(=O)O (stereo not shown) [Compound 1.82, 2-[2-[[4-[5-(trifluoromethyl)-1,2,4-oxadiazol-3-yl]benzoyl]amino]ethylideneamino] oxypropanoic acid]
≥ 80%: pest or weed control at 200 ppm [1] | pest or weed control at 200 ppm [2] | inhibition of growth at 20 ppm [3] | pest or weed control at 200 ppm [4]

O=C(NCC=NOC/C=C\Cl)c1ccc(-c2noc(C(F)(F)F)n2)cc1 [Compound 1.81, N-[2-[(Z)-3-chloroallyloxy]iminoethyl]-4-[5-(trifluoromethyl)-1,2,4-oxadiazol-3-yl]benzamide]
≥ 80%: pest or weed control at 200 ppm [1] | pest or weed control at 200 ppm [2] | inhibition of growth at 20 ppm [3] | pest or weed control at 200 ppm [4]

CC(C=NOCCO)NC(=O)c1ccc(-c2noc(C(F)(F)F)n2)cc1 (stereo not shown) [Compound 1.15, N-[2-(2-hydroxyethoxy-imino)-1-methyl-ethyl]-4-[5-(trifluoromethyl)-1,2,4-oxadiazol-3-yl]benzamide]
≥ 80%: pest or weed control at 200 ppm [1] | pest or weed control at 200 ppm [2] | inhibition of growth at 20 ppm [3] | pest or weed control at 200 ppm [4]

CO/N=C\NC(=O)c1ccc(-c2noc(C(F)(F)F)n2)cc1 [Compound 1.5, N-[(Z)-methoxyiminomethyl]-4-[5-(trifluoromethyl)-1,2,4-oxadiazol-3-yl]benzamide]
≥ 80%: pest or weed control at 200 ppm [1] | pest or weed control at 200 ppm [2] | inhibition of growth at 20 ppm [3] | pest or weed control at 200 ppm [4]

O=C(NCC=NOCC1CC1)c1ccc(-c2noc(C(F)(F)F)n2)cc1 [Compound 1.101, N-[2-(cyclopropyl-methoxyimino)ethyl]-4-[5-(trifluoromethyl)-1,2,4-oxadiazol-3-yl]benzamide]
≥ 80%: pest or weed control at 200 ppm [1] | pest or weed control at 200 ppm [2] | inhibition of growth at 20 ppm [3] | pest or weed control at 200 ppm [4]

CC(C=NOC/C=C\Cl)NC(=O)c1ccc(-c2noc(C(F)(F)F)n2)cc1 (stereo not shown) [Compound 1.36, N-[2-[(Z)-3-chloroallyloxy]imino-1-methyl-ethyl]-4-[5-(trifluoromethyl)-1,2,4-oxadiazol-3-yl]benzamide]
≥ 80%: pest or weed control at 200 ppm [1] | pest or weed control at 200 ppm [2] | inhibition of growth at 20 ppm [3] | pest or weed control at 200 ppm [4]

CON=C(C)CNC(=O)c1ccc(-c2noc(C(F)(F)F)n2)cc1 [Compound 1.133, N-(2-methoxyimino-propyl)-4-[5-(trifluoromethyl)-1,2,4-oxadiazol-3-yl]benzamide]
≥ 80%: pest or weed control at 200 ppm [1] | pest or weed control at 200 ppm [2] | inhibition of growth at 20 ppm [3] | pest or weed control at 200 ppm [4]
